How the values were obtained:
[1] = Total ORAC over the five ROS; conditions: sum over the five oxygen species
Text: (§1) Table 4 illustrates the ORAC scores for oregano essential oil (Origanum vulgare), thyme essential oil (Thymus vulgaris), cinnamaldehyde, and ActiFibe (50 wt. % larch arabinogalactan, 50 wt. % water) against 5 of the most common detrimental ROS: peroxyl radicals (RO2), hydroxyl radicals (OH^−1), peroxynitrate (ONO2^−1; H2O2+NO2^−1), superoxide anion (O2^−1), and singlet oxygen (O2). Results are expressed as trolox equivalents (TE/100 g) for each composition: […]

[2] = 3-oil screening trial, 35 days, broilers with cocci stress; assay type: in vivo, Cobb 500 cockerels; conditions: 0.75 pounds per ton of feed
Text: 640 1-day-old Cobb 500 cockerels were wing banded, weighed and randomly assigned to pens on the day of delivery. Each pen was 3 feet wide by 2 feet long by 2 feet tall holding 10 birds each; density was 0.6 sq. ft. per bird. The pens were contained within two battery cages in a single barn, each with battery cage having 4 levels and 8 pens per level for a total of 32 pens per battery. The experimental period was 35 days divided into three (3) feeding stages, starter, grower and finisher. Bird weight, average daily gain (ADG), average daily feed intake (ADFI), feed to gain (FG) and Coccidiosis oocyte counts were determined at each period. This study was performed with a large number of treatments in order to screen a number of possible treatments for further future investigations. […]

[3] = ORAC against superoxide anion; conditions: trolox equivalents
Text: as §1

[4] = ORAC against peroxynitrite; conditions: trolox equivalents
Text: as §1

[5] = ORAC against hydroxyl radicals; conditions: trolox equivalents
Text: as §1

[6] = ORAC against singlet oxygen; conditions: trolox equivalents
Text: as §1

[7] = ORAC against peroxyl radicals; conditions: trolox equivalents
Text: as §1

O=CC=Cc1ccccc1 [Cinnamaldehyde, cinnamaldehyde]
Total ORAC [1]: 1,141,300 TE/100 g
Average bird weights at 35 days [2]: 2180.2 grams
Oxygen Radical Absorbance Capacity, Superoxide anion [3]: 978,900 TE/100 g
Oxygen Radical Absorbance Capacity, Peroxynitrite [4]: 3,500 TE/100 g
Oxygen Radical Absorbance Capacity, Hydroxyl radical [5]: 49,300 TE/100 g
Oxygen Radical Absorbance Capacity, Singlet oxygen [6]: 90,800 TE/100 g
Oxygen Radical Absorbance Capacity, Peroxyl radical [7]: 18,800 TE/100 g

— patent US10342839B2, “Essential oil compositions and applications utilizing essential oils” (Ralco Nutrition, Inc., priority 2015, dated 2019)
